From patent US11154569B2, “Ruthenium μ-nitrido complexes and their use as calcium uptake inhibitors” (CORNELL UNIVERSITY, priority 2018, dated 2021)

Experiments:
MTT cytotoxicity assay = type: cell-based, human; conditions: human; HEK293 cells, 72 hours incubation; read-out: IC50 (cytotoxicity, MTT)
Description: HEK293 (human embryonic kidney cells were obtained from American Type Culture Collection (ATCC, Washington D.C.) and cultured as adherent monolayers in a humidified 5% CO2 atmosphere at 37° C. in Minimum Essential Media supplemented with 10% fetal bovine serum (FBS) and 100 U/mL penicillin/streptomycin. HeLa cells were cultured in Dulbecco's Modified Eagle's Medium (DMEM) supplemented with 10% FBS and 100 U/mL penicillin/streptomycin. Cells were checked for contamination monthly using the PlasmoTest™ mycoplasma detection kit. Ventricular cardiomyocytes were isolated from neonatal rats (NRVMs) as previously described (H. M. Piper et al., Piper H. M. (eds), Cell Culture Techniques in Heart and Vessel Research, Springer Verlag: Berlin, 1990). The isolated myocytes were cultured in Ham's F-10 supplemented with 5%/o fetal bovine serum (FBS) and penicillin/streptomycin (100 U/ml) at 37° C. in a 95% air/5% CO2 humidified atmosphere for four days
Cells were seeded at 4000 cells/well in 100 μL/well in a 96-well plate and incubated for 24 hours. The media was removed and replaced with 200 μL of growth media containing varying concentrations of the complex. After 72 hours of incubation, the media was replaced with MEM containing 1 mg/mL of (4,5-dimethylthiazol-2-yl)-2,5-diepheyltetrazolium bromide (MTT). After four hours incubation, the media was removed and the purple formazan crystals were solubilized using 100 μL of a 8/1 DMSO/glycine buffer (pH 10) mixture. The absorbance at 570 nm was measured using a plate reader.
With the new nitrido-bridged ruthenium compounds C-2 and C-3 prepared, MCU-inhibitory properties of these compounds were evaluated and their activities compared to C-1, the oxo-bridged Ru360 analogue of the conventional art (S. R. Nathan et al., Inorg. Chem. 2017, 56, 3123-3126 and S. R. Nathan et al., J. Vis. Exp. 2017, 56527). The cytotoxicity of the complexes in HEK293 cells was first measured using the colorimetric thiazolyl blue tetrazolium bromide (MTT) assay, as well known in the art. […]

HEK293 cells = experiment: Whole cell uptake of ruthenium (GFAAS) in HEK293 cells; type: cell-based, human; conditions: 50 μM, 24 hours
Description: HEK293 cells were grown to near confluence in 75 cm^2 dishes. […] The cells were then treated with culture media containing 50 μM of the complex and incubated at 37° C. for 24 hours. The cells were washed with 1 mL of PBS and harvested using 0.05% trypsin. The cells were pelleted by centrifugation, re-suspended in 1 mL of PBS, and pelleted again. The washing and pelleting step was repeated a total of three times, after which the supernatant was removed and the cells were suspended in 500 μL of lysis buffer containing 1% w/v 3-[3-cholamidopropyl)dimethylammonio]-1-propanesulfonate) (CHAPS), 5 mM ethylenediamine tetraacetic acid (EDTA), and 50 mM tris(hydroxymethyl)aminomethane (Tris) and 100 mM NaCl (pH=7.4). The suspension was vortexed for 30 seconds and incubated on ice for 45 minutes. Control cells not treated with the complexes were handled identically to the treated cells to correct for ruthenium present in the cells, and control dishes were incubated with the complex in the absence of cells to correct for non-specific adsorption of ruthenium to the plastic. If needed, samples were stored in −80° C. until analysis. Ruthenium and protein content of the lysates were determined as described above.

HeLa cells [1] = experiment: Whole cell uptake of ruthenium (GFAAS) in HeLa cells; type: cell-based; conditions: 50 μM, 24 hours
[2] = test system: neonatal rat ventricular myocytes (NRVMs); experiment: Hypoxia/reoxygenation injury in neonatal rat ventricular myocytes (ΔΨm and mCa2+ uptake); type: cell-based; conditions: 50 μM, 16 hours hypoxia, 8 hours reoxygenation
Description: Freshly isolated NRVMs were subjected to 16 hours of hypoxia (5% O2-5% CO2) followed by 8 hours of reoxygenation (20% O2-5% CO2). To study the protective effect of C-2, HIR was induced in NRVMs pretreated with or without C-2 (50 μM).
An equal number of NRVMs (6×10^6 cells) were washed in Ca^2+ free PBS, pH 7.4, resuspended and permeabilized with 40 μg/ml digitonin in 1.5 mL of intracellular medium (ICM) composed of 120 mM KCl, 10 mM NaCl, 1 mM KH2PO4, 20 mM Hepes-Tris, pH 7.2 and 2 μM thapsigargin to block the SERCA pump. All measurements were performed in the presence of 2 mM succinate. The simultaneous measurement of mitochondrial membrane potential (ΔΨm) and extra-mitochondrial Ca^2+([Ca^2+]) clearance were measured as above by using the JC-1 and Fura2-FF dyes. A series of extra-mitochondrial Ca^2+ bolus (10 μM) was added and mitochondrial uncoupler, CCCP (2 μM), were added at the indicated time points. All the experiments were performed at 37° C. with constant stirring.
Given the Ca^2+ uptake inhibiting properties and low toxicity of C-2, C-2 was studied for its possible ability to protect cardiomyocytes from the mCa^2+ overload that occurs during hypoxia/reoxygenation (I-H/R) injury and prevent mPTP opening and mitochondrial swelling. Freshly isolated neonatal rat ventricular myocytes (NRVMs) treated with C-2 (50 μM) were subjected to 16 hours of hypoxia (1% O2-5% CO2), followed by 8 hours of reoxygenation (21% O2-5% CO2). Untreated NRVMs served as controls. After H/R injury, NRVMs were permeabilized and loaded with the JC-1 and Fura-FF to simultaneously measure ΔΨm and mCa^2+ uptake.

Water solubility = type: physicochemical
HeLa cells [3] = experiment: Mitochondrial accumulation of ruthenium in HeLa cells (mitochondrial isolation, GFAAS); conditions: 50 μM, 24 hours
Description: Approximately 1×10^6 HeLa cells were seeded in 75 cm^2 dishes and allowed to adhere overnight. The following day, the cell culture media was removed, and the cells were washed with 3 mL of PBS before treatment with media containing 50 μM of the complex. After 24 hours, the culture media was removed, and the cell monolayer was washed with 3 mL of PBS before the cells were harvested by trypsinization. The cell suspension was centrifuged, and the resulting pellet was resuspended in 3 ml, of PBS and centrifuged again to remove extracellular ruthenium. This washing step was repeated a total of three times. […] The ruthenium concentration in each sample was determined by GFAAS and was normalized to the protein content of the lysate, which was determined using the Bicinchoninic Acid Protein Assay Kit. […] Results were calculated as the mass ratio of total ruthenium to protein (pg/μg) in each sample±standard deviation of three independent trials. […]
To determine the abilities of the complexes to accumulate in the mitochondria, HeLa cells were treated with C-1, C-2 or C-3 (50 μM) in culture media for 24 hours, and the mitochondria were isolated following modified literature procedures (e.g., A. C. Komor et al., J. Am Chem. Soc. 2012, 134, 19223-19233). Both the mitochondrial and extramitochondrial fractions were analyzed for ruthenium content.

| SMILES | CC50 at 72 h (MTT cytotoxicity assay) [µM] | cellular uptake relative to C-1 (HEK293 cells) [times] | cellular uptake relative to C-3 (HEK293 cells) | cellular uptake relative to C-1 and C-3 (HeLa cells [1]) | mCa2+ uptake after H/R injury [2] | ΔΨm after H/R injury [2] | solubility (Water solubility) [µg/mL] | concentration in the mitochondria compared to C-1 and C-3 (HeLa cells [3]) |
| --- | --- | --- | --- | --- | --- | --- | --- | --- |
| N.N.N.N.N.N.N.N.[Cl-].[Cl-].[N-3].[Ru+4].[Ru+4] [C-2, [Ru2(μ-N)(NH3)8Cl2]Cl3] | 195 ± 8 | 10 | over twice as effectively as C-3 | twice as effectively as C-1 and C-3 | complete ablation of mCa^2+ uptake | no loss of ΔΨm | 1000 | greater than three-fold higher concentrations |
| N.N.N.N.N.N.N.N.O=C[O-].O=C[O-].[O-2].[Ru+3].[Ru+4] [Ru360, reference compound] |  |  |  |  |  | did not prevent H/R-mediated ΔΨm dissipation |  |  |
